Source: patent US8772250B2, “Compositions and methods for treating ischemia and ischemia-reperfusion injury” (Ischemix, LLC, priority 2010, dated 2014)

Columns and labels:
insulin receptor kinase = target: T1, insulin receptor kinase (Homo sapiens, UniProt P06213); assay: IRK activation assay (mobility shift kinase assay); format: biochemical
T1 construct: insulin receptor kinase domain (Millipore catalog #14-466, 80 nM); purchased Millipore 14-466
Description: Insulin receptor kinase activity was readily measured by a mobility shift assay using a Caliper LabChip® 3000 and a 12-sipper LabChip® to detect both phosphorylated and unphosphorylated substrate (Caliper Life Sciences, Discovery Alliances and Services Division, Hanover, Md.). The mobility-shift kinase assay uses a micro fluidic chip to measure the conversion of a fluorescent peptide substrate to a phosphorylated product. The reaction mixture from a microtiter plate well was introduced through a capillary sipper onto the chip and the nonphosphorylated substrate and phosphorylated product were separated by electrophoresis and detected via laser-induced fluorescence. […] The catalytic subunits of tyrosine kinases have endogenous levels of activity in the presence of ATP and substrate, thus the results are presented as a % of control.
Specifically, each test compound was diluted to 25 times its assay concentration with 100% DMSO and added to 12 μL of an assay buffer solution (100 mM HEPES, 10 mM MnCl2, 5 mM B-GP, and 0.002% Brij) containing dithiotheritol (DTT, 2 mM) and insulin receptor kinase domain (Millipore catalog #14-466, 80 nM) prior to pre-incubation at room temperature for 15 minutes. […] The samples were placed on the LabChip 3000 to measure the amount of parent substrate and phosphorylated product. […]

CHO M1-WT3 cells = assay: Cytosolic calcium overload assay, carbachol stimulated; format: cell-based, Chinese hamster; conditions: 200 nM carbachol, variant concentrations
Description: Cytosolic calcium increases in the CHO M1-WT3 cells when stimulated with carbachol ([Molecular Devices, FlexStation Application Note 2, Comparison of FLIPR® and FLEXstation™ for Calcium Mobilization Assays]) and may be detected with a fluorescent dye that binds calcium. An increase in fluorescence following carbachol stimulation is interpreted as an increase in cytosolic calcium. Chinese hamster ovary (CHO) cells were allowed to adhere to the bottom of a 96-well culture plate. The fluorescent dye and a test sample were placed on the plate and allowed to be taken up by the cells. The fluorescence level was measured every two seconds using a plate reader (Flexstation II, Molecular Devices, Sunnyvale Calif.). The cells were stimulated with carbachol and fluorescent data reported as the peak increase in fluorescence above baseline following carbachol stimulation. Data were normalized to the peak carbachol response in the control sample.
CHO cells from the cell line CHO-M1-WT3 were grown in Hams F12 medium supplemented with 10% FBS and 5 μg/mL G418 to maintain expression of the M1 muscarinic receptor. Cells were seeded the night before the experiment at a concentration of 30,000 cells/well in a volume of 100 μL per well of black walled, clear bottomed, 96-well microplates (“assay plates”). Cells were incubated at 37° C. and 5% CO2 overnight. […] The cells were placed into the FlexStation system to monitor fluorescence before and after the addition of 50 μL of 1 μM carbachol for a final concentration of 200 nM. Fluorescence was measured for 17 seconds prior to carbachol addition and 43 seconds following carbachol addition. The Fluo-4 dye was excited at a wavelength of 485 nm and emission measured at 525 nm. The Calcium-3 dye was excited at a wavelength of 494 nm and emission measured at 525 nm. The calcium response was reported as the peak fluorescence minus the baseline fluorescence calculated as the average of the fluorescence prior to carbachol addition.

myocardial I/R injury = assay: Incidence of acute cardiac dysfunction and mortality in rat model of myocardial I/R injury; format: in vivo
Description: The incidence of acute cardiac dysfunction associated with arrhythmia and cardiac arrest requiring intervention and the incidence of mortality due to these co-morbidities was examined in the rat model of myocardial I/R injury described herein for different dosages and dosage regimens for administering RLip-EA-OH. In vivo experiments were performed as described in Example 8 using dosage intervals described in Example 10. Treatments (i.e., vehicle, RLip-EA-OH) were administered as a left intra-ventricular injection, IV bolus, IV infusion, or orally. Specifically, the incidence of non-self-resolving cardiac dysfunction (i.e., extended fibrillation arrhythmia, sudden cardiac arrest) during ischemia and requiring intervention (direct mechanical cardiac resuscitation), and mortality associated with cardiac dysfunction were observed.

T1 sequence (P06213 1023-1298 limits assumed): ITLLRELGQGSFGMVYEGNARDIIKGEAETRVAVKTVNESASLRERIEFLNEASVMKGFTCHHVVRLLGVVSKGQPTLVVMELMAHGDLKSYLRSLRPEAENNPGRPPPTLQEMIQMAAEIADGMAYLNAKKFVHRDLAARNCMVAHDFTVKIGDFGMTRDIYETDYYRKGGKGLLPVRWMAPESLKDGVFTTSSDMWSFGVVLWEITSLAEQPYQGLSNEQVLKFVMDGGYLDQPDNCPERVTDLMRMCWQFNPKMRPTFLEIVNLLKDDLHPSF

C[C@H](NC(=O)[C@H](CCC(=O)O)NC(=O)CCCC[C@@H]1CCSS1)C(=O)O [RLip-EA-OH, N-(R)-lipoyl-L-glutamyl-L- alanine]
AVG % activity above control (±SEM) (insulin receptor kinase; 100 μM): 78 ± 15% | IRK % Increase in activity above vehicle control (insulin receptor kinase; 300 μM): 77 ± 7% | effect on carbachol stimulated flux in cytosolic calcium (CHO M1-WT3 cells): diminished the flux in cytosolic calcium in a dose dependent manner | Intervention due to Arrhythmia/Arrest (%) (myocardial I/R injury; Multi-dose (2x)): 3\19 (16) % | Mortality (%) (myocardial I/R injury; Multi-dose (2x)): 1\19 (5) % | Intervention due to Arrhythmia/Arrest (%) (myocardial I/R injury; Multi-dose (3x)): 4\18 (22) % | Mortality (%) (myocardial I/R injury; Multi-dose (3x)): 1\18 (5) % | Intervention due to Arrhythmia/Arrest (%) (myocardial I/R injury; Single dose): 6\17 (35) % | Mortality (%) (myocardial I/R injury; Single dose): 2\17 (12) %
